What was measured:
[1] = target: T1, CYP2D6 (Homo sapiens, UniProt P10635); assay: CYP2D6 inhibition screening test; type: in vitro ADME; settings: pooled human liver microsomes, substrate bufuralol, 37° C. 10 min, 1'-hydroxybufuralol by LC-MSMS; read-out: Test Example 3: CYP2D6 Inhibition IC50
T1 construct: Pooled of Human Liver Microsomes was purchased from Xenotech, LLC; tissue Xenotech, LLC; host or cells: pooled human liver microsomes
Protocol: CYP2D6 Inhibition Screening Test
Bufuralol was purchased from Sigma-Aldrich Corp., and Pooled of Human Liver Microsomes was purchased from Xenotech, LLC.
150 μL of Pooled Human Liver Microsomes (20 mg/ml), 12 mL of a 0.5 M potassium phosphate buffer, 1.2 mL of a 165 mM magnesium chloride solution, and 34.65 mL of distilled water were mixed.
Bufuralol was dissolved at a concentration of 2.0 mM in DMSO and then diluted 200-fold with distilled water.
3-3 Experimental Procedures
1. A 10 mM DMSO solution of a test drug was serially diluted 5-fold with DMSO for 4 serial dilutions to prepare 10, 2, 0.4, and 0.08 mM DMSO solutions.
2. Each test drug solution of the step 1. and DMSO were separately diluted 96-fold with a human liver microsome solution, and each dilution was dispensed and 80 μL of each dilution to microplates.
3. 10 μL of a substrate solution and 10 μL of a β-NADPH solution were added to the well of the step 2., followed by incubation at 37° C. for 10 min.
4. The reaction was terminated by the addition of 300 μL of methanol.
5. The reaction mixture was filtered, and LC-MSMS analysis was conducted.
3-4 Quantification and Calculation
The amount of 1′-hydroxybufuralol produced was quantified by LC-MSMS, and this amount was used as a metabolic activity of CYP2D6 for each well. The remaining activity of each sample was determined by comparison with the activity obtained from DMSO as a test drug. An IC50 value of CYP2D6 inhibition was determined from the test drug concentration and remaining activity. The IC50 value was calculated by linear interpolation between two points that span the remaining activity 50%. A larger value of IC50 of CYP2D6 inhibition means weaker CYP2D6 inhibition.

[2] = target: T2, human serotonin transporter (h-SERT) (Homo sapiens, UniProt P31645); assay: Serotonin transporter function inhibition test using [3H]5-HT; type: cell-based; settings: h-SERT/CHO cells, [3H]5-HT uptake approximately 10 nM, 37° C. 10 minutes; read-out: Test Example 5: h-SERT Function Inhibition Constant (Ki)
T2 construct: expressed in transfected cells; host or cells: CHO cells (h-SERT/CHO), Geneticin-selected
Protocol: 1-1 Cells Used and Preparation of Cell Suspension
CHO cells containing a human serotonin transporter (h-SERT) expressed therein (h-SERT/CHO) were used in the experiment. […] The collected cells were suspended in a buffer solution containing 0.1 mM CaCl2 and 1 mM MgCl2 in PBS (hereinafter, referred to as PBSCM) and stored in ice until use.
Specifically, 149 μl of the cell suspension (10×10^4 cells/well) and 1 μl of a solution of a test drug dissolved in dimethyl sulfoxide were preincubated at 37° C. for 10 minutes.

[3] = target: T3, human serotonin 1A receptor (h-5-HT1A) (Homo sapiens, UniProt P08908)
T3 sequence (P08908 1-422): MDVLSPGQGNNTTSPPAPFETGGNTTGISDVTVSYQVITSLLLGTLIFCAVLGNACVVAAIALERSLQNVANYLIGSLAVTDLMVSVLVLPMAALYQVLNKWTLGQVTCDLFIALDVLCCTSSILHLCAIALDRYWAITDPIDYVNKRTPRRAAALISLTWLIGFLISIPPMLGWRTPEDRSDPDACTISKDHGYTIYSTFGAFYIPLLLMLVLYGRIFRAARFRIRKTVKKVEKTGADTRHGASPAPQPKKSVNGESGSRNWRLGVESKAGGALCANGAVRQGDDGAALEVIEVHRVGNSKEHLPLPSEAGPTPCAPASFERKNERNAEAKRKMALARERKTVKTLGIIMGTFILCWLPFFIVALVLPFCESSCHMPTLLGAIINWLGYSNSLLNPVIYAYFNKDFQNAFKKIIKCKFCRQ
Protocol: The cells were cultured in F12 containing 10% FCS, 500 μg/ml Geneticin, and 100 U/ml penicillin-100 μg/ml streptomycin (all manufactured by Sigma-Aldrich Corp.) in a 5% CO2 incubator. […] Specifically, the cells were dissociated/collected using 50 mM Tris-HCl (pH=7.4). The resulting cells were homogenized using a Teflon (registered trademark) homogenizer and then centrifuged (48,000×g, 20 min, 4° C.). The pellet was resuspended in an appropriate amount of 50 mM Tris-HCl (pH=7.4) and stored at −80° C. until use. The amount of the protein in the membrane preparation was quantified using Dye Reagent Concentrate (manufactured by Bio-Rad Laboratories, Inc.) with bovine serum albumin (manufactured by Sigma-Aldrich Corp.) as a standard.
The reaction solution was reacted at room temperature for 30 minutes and then rapidly filtered by suction at a low pressure through glass fiber filter paper. The glass fiber filter paper was washed twice with 250 μl of 50 mM Tris-HCl (pH=7.4) and then added to a counting vial containing 4 ml of ACS-II (manufactured by Amersham Biosciences). Receptor binding radioactivity remaining on the filter paper was measured using a liquid scintillation counter.

[4] = target: T1, CYP2D6; assay: Screening test of the rate of CYP2D6 contribution in human liver microsomal metabolism; type: in vitro ADME; design: key to Rate of CYP2D6 Contribution indeterminable due to high stability for human microsomal metabolism: —*^): The rate of CYP2D6 contribution was indeterminable in the present test due to high stability for human microsomal metabolism; settings: 1 mg/mL human liver microsomes, 1 μM test substance, 37° C.
Protocol: Screening Test of the Rate of CYP2D6 Contribution in Human Liver Microsomal Metabolism
0.2 mL of a 50 mM potassium phosphate buffer solution (pH 7.4) containing NADPH (final concentration: 3 mM, manufactured by Oriental Yeast Co., Ltd.), 1 mg/mL human liver microsomes (manufactured by XENOTECH, LLC), and a 1 μM test substance was heated on a water bath at 37° C. for metabolic reaction. After the reaction for 15 minutes or 30 minutes, methanol was added in a volume 3 times that of the reaction solution, and the mixture was stirred to terminate the reaction. This reaction solution was centrifuged for protein precipitation. Then, the supernatant was collected and subjected to LC-MS/MS analysis. The results were analyzed as follows:
The test substance was quantified, and time-dependent change in the amount of the substance remaining was logarithmically plotted. A metabolic rate was calculated from the slope.
The ratio of the metabolic rate obtained by the addition of quinidine (final concentration: 4 μM) to the reaction solution to the metabolic rate obtained without the addition was used as the rate of contribution of enzymes other than CYP2D6, and the rate of contribution obtained by subtracting this rate of contribution of other enzymes from the total was used as the rate of CYP2D6 contribution. Specifically, it was calculated according to the equation: Rate of contribution(%)={1−(metabolic rate [with quinidine]/metabolic rate[without quinidine])}×100. A smaller value of the rate of CYP2D6 contribution means smaller CYP2D6 contribution.

[5] = target: T2, human serotonin transporter (h-SERT); assay: Screening test using [3H]citalopram binding for evaluating human serotonin reuptake inhibitory effect; settings: h-SERT/CHO membrane preparation, [3H]citalopram approximately 2 nM, room temperature 60 minutes; read-out: Test Example 1: h-SERT binding inhibition constant (Ki)
Excerpt: CHO cells containing a human serotonin transporter (h-SERT) expressed therein (h-SERT/CHO) were used in the experiment.
1-2 Receptor Binding Experiment
A smaller value of the h-SERT binding inhibition constant Ki means a higher human serotonin reuptake inhibitory effect.

T1 sequence (P10635 whole entry): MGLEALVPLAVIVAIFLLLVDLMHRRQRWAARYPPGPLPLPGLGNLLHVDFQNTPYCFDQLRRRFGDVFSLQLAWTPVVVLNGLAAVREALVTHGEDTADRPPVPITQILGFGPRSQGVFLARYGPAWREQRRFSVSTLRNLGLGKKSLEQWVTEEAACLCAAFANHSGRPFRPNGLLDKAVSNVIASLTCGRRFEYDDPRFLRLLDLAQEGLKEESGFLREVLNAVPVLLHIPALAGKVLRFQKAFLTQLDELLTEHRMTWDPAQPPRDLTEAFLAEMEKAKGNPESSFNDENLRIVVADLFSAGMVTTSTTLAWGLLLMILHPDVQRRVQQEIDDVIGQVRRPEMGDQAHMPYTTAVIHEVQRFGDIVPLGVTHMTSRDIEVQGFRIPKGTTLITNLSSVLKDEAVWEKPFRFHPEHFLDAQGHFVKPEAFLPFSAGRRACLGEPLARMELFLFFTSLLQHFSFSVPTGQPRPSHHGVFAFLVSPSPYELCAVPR
T2 sequence (P31645 whole entry): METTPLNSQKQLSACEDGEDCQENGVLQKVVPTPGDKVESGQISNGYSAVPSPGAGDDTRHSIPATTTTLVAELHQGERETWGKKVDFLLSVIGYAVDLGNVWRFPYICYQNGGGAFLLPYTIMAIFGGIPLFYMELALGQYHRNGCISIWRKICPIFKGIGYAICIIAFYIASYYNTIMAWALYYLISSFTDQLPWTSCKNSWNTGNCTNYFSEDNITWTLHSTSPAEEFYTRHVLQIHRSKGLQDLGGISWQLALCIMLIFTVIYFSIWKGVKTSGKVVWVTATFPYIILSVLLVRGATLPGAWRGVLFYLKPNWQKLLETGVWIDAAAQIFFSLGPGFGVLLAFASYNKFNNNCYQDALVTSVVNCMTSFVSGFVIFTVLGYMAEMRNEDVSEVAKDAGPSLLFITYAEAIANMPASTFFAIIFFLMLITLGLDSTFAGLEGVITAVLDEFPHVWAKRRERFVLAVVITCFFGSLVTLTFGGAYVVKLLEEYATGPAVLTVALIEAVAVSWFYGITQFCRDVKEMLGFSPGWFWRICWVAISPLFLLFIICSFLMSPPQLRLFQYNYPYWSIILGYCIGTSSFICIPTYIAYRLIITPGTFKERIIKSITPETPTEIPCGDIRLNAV

O=C1CCOc2ccc(CCN3CCC(Cc4ccc(Br)c(OCCO)c4)CC3)cc21 [Example 13, 6-(2-{4-[4-Bromo-3-(2-hydroxyethoxy)benzyl]piperidin-1-yl}ethyl)-2,3-dihydro-4H-chromen-4-one]
IC50 [1]: 26.9 µM | Ki [2]: 51 nM | Ki [3]: 8.6 nM | Rate of CYP2D6 Contribution indeterminable due to high stability for human microsomal metabolism [4]: —*^) | Ki [5]: 7.4 nM

Reference: US8557998B2, “Benzylpiperizine compound” (Dainippon Sumitomo Pharma Co., Ltd, priority 2008, dated 2013)
